Experiment [1] can be described thus: (§1) MMV: Anti-babesial activity assay. Parasite pRBCs at 1% parasitemia were cultivated in 100 ul with 96-well plates at 2.5% and 5% hematocrits. The parasites were cultivated in triplicate for 4 days without replacement of the medium for each concentration of the compound. It is filed as functional, Babesia equi.
The nature of experiment [2]: as §1. It is filed as functional, Babesia bigemina.
Experiment [3] can be described thus: as §1. It is filed as functional, Babesia bovis.
A short description of experiment [4]: as §1. It is filed as functional, Babesia caballi.

Each structure is given as a SMILES string.

For 46 compounds, IC50 results are on record in ChEMBL document CHEMBL3301464, “MMV Malaria Box anti-babesial screening”.

The term IC50 denotes the concentration that inhibits the measured activity by half. A low value points to greater potency in that assay. For the compound `Cc1[nH]c(-c2ccc(F)cc2)cc1C(=O)NC1CCN(Cc2ccccc2)CC1`, the IC50 in experiment [1] was found to be 0.58 µM; in experiment [2] it was 4.29 µM; in experiment [3] it was 0.303 µM; in experiment [4], 8.21 µM.
`Cc1ccc(C)c(-c2csc(Nc3ccc(C)c(C)c3)n2)c1`: the IC50 in experiment [1] turned out to be 0.14 µM; in experiment [2] it was 8.05 µM; in experiment [3], 0.06 µM; in experiment [4], 0.71 µM.
For the compound `CC(=O)c1ccc(NC(=O)CSc2nc(-c3ccccc3Cl)ns2)cc1`, the concentration for half-maximal inhibition (IC50) in experiment [1] was 0.65 µM; in experiment [2], 10 µM; in experiment [3], 0.86 µM; in experiment [4] it was 3.34 µM.
For `CCOc1ccc(Nc2c3ccccc3nc3ccccc23)cc1`, the concentration for half-maximal inhibition (IC50) came out at 4.52 µM in experiment [1], 0.1 µM in experiment [2], 0.72 µM in experiment [3] and 7.54 µM in experiment [4].
In the same order, the values of `CCN(CC)CCNc1ccnc2cc3ccccc3cc12` are 5.69 µM, 3.25 µM, 7.72 µM and 5.09 µM.
The like results for `OC1=C2C(=Nc3ccccc3SC2c2ccc(Br)cc2)c2ccccc21` (centres undefined) were, in that order, 12 µM, 15.2 µM, 11.1 µM and 7.95 µM.
As for `Oc1ccc(Cl)cc1CNc1nc2ccccc2[nH]1`, the half-maximal inhibitory concentration (IC50) in experiment [1] was 4.77 µM; in experiment [2] it was 5.06 µM; in experiment [3], 5.38 µM; in experiment [4] it was 8.03 µM.
Turning to `COc1cccc(C2(C)Nc3ccccc3-c3nc4ccccc4n32)c1` (centres undefined), the IC50 stood at 10 µM in experiment [1], 25 µM in experiment [2], 13.9 µM in experiment [3] and 1 µM in experiment [4].
In the same order, the values of `O=C(c1ccccc1F)N(Cc1ccc(Cl)cc1)c1ccccn1` are 18.2 µM, 4.19 µM, 16.5 µM and 6.06 µM.
`CCCc1cc(O)c2c3c(c(=O)oc2c1)CN(C)CC3`: the IC50 in experiment [1] came out at 18.5 µM; in experiment [2] it was 16.4 µM; in experiment [3], 23.9 µM; in experiment [4], 7.87 µM.
For `O=C(NC1CCN(Cc2ccccc2)CC1)c1cc2nc(-c3ccc(Cl)s3)cc(C(F)(F)F)n2n1`, the IC50 in experiment [1] was 13.9 µM; in experiment [2] it was 0.065 µM; in experiment [3], 1.42 µM; in experiment [4], 4.13 µM.
As for `Cc1ccc(CSCc2ccc(C(=O)NC3CC3)o2)cc1`, the IC50 was found to be 4.48 µM in experiment [1], 15.2 µM in experiment [2], 8.31 µM in experiment [3] and 12.9 µM in experiment [4].
The like results for `FC(F)(F)c1cccc(Nc2nc(-c3ccccc3)nc3ncccc23)c1` were, in that order, 16 µM, 4.48 µM, 6.8 µM and 12 µM.
Regarding `CC(=O)Nc1nnc(SCc2c(C)cc(C(C)(C)C)cc2C)s1`, the IC50 in experiment [1] was 15.8 µM; in experiment [2], 11.4 µM; in experiment [3] it was over 25 µM; in experiment [4] it was 12.8 µM.
With `CCN(CC)CCNc1ncnc2c1[nH]c1ccc(Br)cc12`, the IC50 in experiment [1] was found to be 4.6 µM; in experiment [2], 3.03 µM; in experiment [3], 1 µM; in experiment [4], 4.19 µM.
For `CCOC(=O)c1cnc2ccc(OC)cc2c1Nc1ccc(N2CCN(C)CC2)cc1`, the IC50 in experiment [1] was 10 µM; in experiment [2], 1 µM; in experiment [3], 0.061 µM; in experiment [4], 8.25 µM.
Turning to `CCOC(=O)c1cnc2ccc(Cl)cc2c1NCCCN(C)C`, the 50% inhibitory concentration (IC50) in experiment [1] came to 3.86 µM; in experiment [2] it was 5.51 µM; in experiment [3], 0.42 µM; in experiment [4], 0.11 µM.
As for `CC(C)(C)c1ccc(C2CC3=Nc4ccccc4N(C(=O)c4ccccc4Cl)C(c4ccc(F)cc4)C3=C(O)C2)cc1` (centres undefined), the 50% inhibitory concentration (IC50) in experiment [1] is 15.2 µM; in experiment [2], 12 µM; in experiment [3] it was 21.4 µM; in experiment [4], 3.73 µM.
Regarding `Clc1cc(Br)ccc1-c1ccc(CNCC2CCNCC2)o1`, the half-maximal inhibitory concentration (IC50) amounted to 5.93 µM in experiment [1], 4.19 µM in experiment [2], 0.33 µM in experiment [3] and 12.4 µM in experiment [4].
Consider `O=C(Nc1ccccc1O)c1ccc(-c2ccc(Cl)cc2Cl)o1`, for which the IC50 came to 12.5 µM in experiment [1], 19 µM in experiment [2], 4.65 µM in experiment [3] and 6.51 µM in experiment [4].
Take `Oc1c(C(Nc2ccccn2)c2cccc(Oc3ccccc3)c2)ccc2cccnc12` (centres undefined): the concentration for half-maximal inhibition (IC50) turned out to be 12.6 µM in experiment [1], 3.34 µM in experiment [2], 6.72 µM in experiment [3] and 10 µM in experiment [4].
With `CN(C)c1ccc(C=Cc2nc(=O)c3ccccc3o2)cc1`, the IC50 in experiment [1] was determined as 11.5 µM; in experiment [2], 16.8 µM; in experiment [3], 16.2 µM; in experiment [4], 14.6 µM.
On to `CCCC(c1nnnn1C1CCCCC1)N1CCN(C(=O)c2ccco2)CC1` (centres undefined), for which the IC50 was found to be 0.219 µM in experiment [1], 0.083 µM in experiment [2], 0.059 µM in experiment [3] and 0.13 µM in experiment [4].
Turning to `Cc1cc(Nc2cccc(F)c2)nc(NCc2ccccc2)n1`, the IC50 in experiment [1] is 5.06 µM; in experiment [2], 0.093 µM; in experiment [3], 10 µM; in experiment [4] it was 0.1 µM.
For `COc1ccc2c(c1OC)C(=O)N1c3ccccc3N=C(c3ccc(C)cc3)CC21` (centres undefined), the IC50 was 14.6 µM in experiment [1], 16.1 µM in experiment [2], 13 µM in experiment [3] and 17.1 µM in experiment [4].
On to `CCOc1cccc(C(=O)Nc2ccc(-c3nc4ccccc4[nH]3)cc2)c1`, for which the IC50 in experiment [1] was found to be 10 µM; in experiment [2] it was 5.64 µM; in experiment [3] it was 17.2 µM; in experiment [4], 0.075 µM.
For the compound `CC(=O)NCCc1nc2ccccc2n1Cc1ccc(C(C)C)cc1`, the IC50 in experiment [1] was found to be 1 µM; in experiment [2] it was 8.2 µM; in experiment [3], 7.96 µM; in experiment [4], 10 µM.
Turning to `COc1ccc(-c2cc(=O)oc3c4c(ccc23)OCN(Cc2ccc(F)cc2)C4)cc1`, the 50% inhibitory concentration (IC50) in experiment [1] stood at 14.8 µM; in experiment [2], 0.29 µM; in experiment [3], 2.95 µM; in experiment [4], 0.071 µM.
Regarding `COc1ccc(Nc2nc(NCc3ccccc3)c3ccccc3n2)cc1`, the 50% inhibitory concentration (IC50) in experiment [1] is 4.77 µM; in experiment [2], 2.16 µM; in experiment [3], 0.06 µM; in experiment [4], 3.7 µM.
`Cc1sc(NC(=O)c2ccccc2)c(C(c2cccs2)N2CCN(c3ccccc3)CC2)c1C` (centres undefined): the half-maximal inhibitory concentration (IC50) in experiment [1] came to 10.7 µM; in experiment [2], 0.68 µM; in experiment [3] it was 1.05 µM; in experiment [4], 14.7 µM.
In the same order, the values of `COc1ccc(-c2cc3c(SCC(=O)Nc4cc(C(F)(F)F)ccc4Cl)nccn3n2)cc1` are 25 µM, 17.1 µM, over 25 µM and 9.61 µM.
The like results for `CCOc1ccc2nc(C)cc(Nc3ccc(Br)cc3)c2c1` were, in that order, 7.13 µM, 0.6 µM, 1.07 µM and 15.2 µM.
`O=C(Nc1ccsc1C(=O)NC1CCCCC1)c1ccc(F)cc1`: the IC50 in experiment [1] is 5.64 µM; in experiment [2], 0.1 µM; in experiment [3], 0.08 µM; in experiment [4], 17.7 µM.
In the same order, the values of `O=C(NC1CCN(Cc2ccccc2)CC1)c1cc(-c2ccncc2)nc2ccc(Cl)cc12` are 0.39 µM, 7.3 µM, 3.99 µM and 0.076 µM.
Take `O=C(Nc1cccc(C2=NCCN2)c1)Nc1cccc(C2=NCCN2)c1` [IMIDOCARB]: the half-maximal inhibitory concentration (IC50) came to 0.052 µM in experiment [1], 0.5 µM in experiment [2], 0.059 µM in experiment [3] and 0.081 µM in experiment [4].
On to `Cc1ccc(Cl)cc1N1CCN(CCCNC(=O)C2CCN(c3nc4ccccc4[nH]3)CC2)CC1`, for which the IC50 in experiment [1] was determined as 4.77 µM; in experiment [2] it was 2.4 µM; in experiment [3], 3.03 µM; in experiment [4], 1 µM.
`CC(C)(C)c1ccc(C(=O)Nc2c3c(nn2-c2cccc(Cl)c2)CSC3)cc1`: the IC50 in experiment [1] was found to be 8.96 µM; in experiment [2], 0.72 µM; in experiment [3], 4.21 µM; in experiment [4] it was 17 µM.
In the case of `O=c1nc(C=Cc2ccc(Br)cc2)oc2ccccc12`, the IC50 in experiment [1] was 14.3 µM; in experiment [2], 10 µM; in experiment [3] it was 15.3 µM; in experiment [4], 13.6 µM.
Turning to `CN(C)CCNc1cc(-c2ccccc2)nc2ccccc12`, the concentration for half-maximal inhibition (IC50) in experiment [1] worked out at 0.59 µM; in experiment [2], 3.03 µM; in experiment [3], 4.65 µM; in experiment [4], 0.1 µM.
In the case of `COc1cc(C(=O)Nc2nc3c(cc4c5c(cccc53)CC4)s2)cc(OC)c1OC`, the IC50 in experiment [1] worked out at 4.41 µM; in experiment [2], 8.04 µM; in experiment [3], 3.08 µM; in experiment [4] it was 5 µM.
On to `CCOc1ccccc1CNC(=O)C1c2ccccc2C(=O)N(CC(C)C)C1c1cccs1` (centres undefined), for which the IC50 was 12.4 µM in experiment [1], 0.1 µM in experiment [2], 0.83 µM in experiment [3] and 14.3 µM in experiment [4].
As to `Cc1ccc(C(=O)c2oc3ccc4c(C)cc(=O)oc4c3c2C)cc1`, the 50% inhibitory concentration (IC50) came out at 0.054 µM in experiment [1], 0.065 µM in experiment [2], 0.07 µM in experiment [3] and 9.18 µM in experiment [4].
For `COc1ccc(Nc2nc(N/N=C/c3ccc(O)cc3)nc(Nc3ccc([N+](=O)[O-])cc3)n2)cc1`, the half-maximal inhibitory concentration (IC50) came to 15.9 µM in experiment [1], 0.05 µM in experiment [2], 0.081 µM in experiment [3] and 5.09 µM in experiment [4].
`CC1CN(C(=O)c2sc3ccccc3c2Cl)CC(C)O1` (centres undefined): the IC50 in experiment [1] is 23.1 µM; in experiment [2], 18.2 µM; in experiment [3] it was over 25 µM; in experiment [4], 19.2 µM.
The like results for `CC(C)(C)c1ccc(C(=O)Nc2nc3ccccc3s2)cc1` were, in that order, 10 µM, 12.9 µM, 7 µM and 1 µM.
`O=C(Nc1ccc(-c2nc3cc(NC(=O)c4ccc(Cl)cc4)ccc3[nH]2)cc1)c1ccc(Cl)cc1`: the IC50 in experiment [1] was 13.3 µM; in experiment [2], 5.09 µM; in experiment [3], 17 µM; in experiment [4], 9.1 µM.
